Assay [1] concerns calpain activity in SH-SY5Y cells (Spectrin). Description: SH-SY5Y Spectrin cellular calpain inhibition. In kind it is cell-based.
The target in a further assay is T1, Human Calpain 1/NS1 (Homo sapiens, UniProt P07384).
T1 sequence (P07384 1-714): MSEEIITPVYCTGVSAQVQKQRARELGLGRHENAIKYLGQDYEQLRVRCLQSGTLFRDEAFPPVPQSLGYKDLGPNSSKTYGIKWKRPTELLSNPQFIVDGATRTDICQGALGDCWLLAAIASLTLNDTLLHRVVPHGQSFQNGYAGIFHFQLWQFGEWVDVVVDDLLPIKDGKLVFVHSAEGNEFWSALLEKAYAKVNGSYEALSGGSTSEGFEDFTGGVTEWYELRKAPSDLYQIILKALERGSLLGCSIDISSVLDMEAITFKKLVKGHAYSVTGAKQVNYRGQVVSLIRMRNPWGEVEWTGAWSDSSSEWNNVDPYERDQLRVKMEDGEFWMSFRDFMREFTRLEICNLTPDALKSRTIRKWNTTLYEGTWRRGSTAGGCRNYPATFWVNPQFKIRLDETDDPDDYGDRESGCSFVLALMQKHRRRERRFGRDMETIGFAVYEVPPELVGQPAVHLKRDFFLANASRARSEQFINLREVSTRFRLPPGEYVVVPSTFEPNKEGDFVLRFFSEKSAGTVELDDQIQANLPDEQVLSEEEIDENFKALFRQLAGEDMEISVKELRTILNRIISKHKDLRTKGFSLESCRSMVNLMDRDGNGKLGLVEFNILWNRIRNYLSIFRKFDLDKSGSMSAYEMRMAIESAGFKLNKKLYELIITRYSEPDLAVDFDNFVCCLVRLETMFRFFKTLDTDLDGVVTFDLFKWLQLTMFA
T1 sequence (P04632 1-268 partner): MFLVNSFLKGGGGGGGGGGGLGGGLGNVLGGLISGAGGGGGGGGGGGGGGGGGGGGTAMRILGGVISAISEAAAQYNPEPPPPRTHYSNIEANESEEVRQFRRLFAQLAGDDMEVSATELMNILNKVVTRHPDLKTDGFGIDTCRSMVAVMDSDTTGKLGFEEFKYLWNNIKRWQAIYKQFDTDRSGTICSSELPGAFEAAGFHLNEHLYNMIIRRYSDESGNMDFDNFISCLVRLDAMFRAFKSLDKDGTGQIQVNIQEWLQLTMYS
Description: Biochemical inhibition of calpain 1, continuous fluorescence (FRET substrate) assay. As to conditions: mean; read-out: Human Calpain 1/NS1 IC50 (nM)_MEAN. As to the method: (§1) Calpain 1, 2, and 9 activity and inhibition thereof are assessed by means of a continuous fluorescence assay. The SensoLyte 520 Calpain substrate (Anaspec Inc) is optimized for detecting calpain activity. This substrate contains a novel internally quenched 5-FAM/QXL™ 520 FRET pair. Calpains 1, 2, and 9 cleave the FRET substrate into two separate fragments resulting in an increase of 5-FAM fluorescence that is proportional to calpain activity.
(§2) Assays are typically setup in black 384-well plates using automated liquid handling as follows. Calpain assay base buffer typically contains 50 mM Tris, pH 7.5, 100 mM NaCl and 1 mM DTT. Inhibitors are serially diluted in DMSO and used to setup 2× mixtures with calpains in the aforementioned buffer. After incubation at ambient temperature (25 C), the reaction is initiated by adding a 2× mix of the fluorescent peptide substrate and CaCl2 (required for in-situ calpain activation) in the same buffer. Reaction progress curve data are typically collected for 10 min using excitation/emission wavelengths of 490 nm/520 nm on SpectraMax i3x or the FLIPR-Tetra plate readers (Molecular Devices Inc). Reaction rates were calculated from progress curve slopes typically over 1-5 min. Dose response curves (rate vs. log inhibitor concentration) were typically fit to a 4-parameter logistic function to extract IC50 values.

Another assay concerns the target T2, Human Calpain 9/NS1 (Homo sapiens, UniProt O14815).
T2 sequence (O14815 1-690): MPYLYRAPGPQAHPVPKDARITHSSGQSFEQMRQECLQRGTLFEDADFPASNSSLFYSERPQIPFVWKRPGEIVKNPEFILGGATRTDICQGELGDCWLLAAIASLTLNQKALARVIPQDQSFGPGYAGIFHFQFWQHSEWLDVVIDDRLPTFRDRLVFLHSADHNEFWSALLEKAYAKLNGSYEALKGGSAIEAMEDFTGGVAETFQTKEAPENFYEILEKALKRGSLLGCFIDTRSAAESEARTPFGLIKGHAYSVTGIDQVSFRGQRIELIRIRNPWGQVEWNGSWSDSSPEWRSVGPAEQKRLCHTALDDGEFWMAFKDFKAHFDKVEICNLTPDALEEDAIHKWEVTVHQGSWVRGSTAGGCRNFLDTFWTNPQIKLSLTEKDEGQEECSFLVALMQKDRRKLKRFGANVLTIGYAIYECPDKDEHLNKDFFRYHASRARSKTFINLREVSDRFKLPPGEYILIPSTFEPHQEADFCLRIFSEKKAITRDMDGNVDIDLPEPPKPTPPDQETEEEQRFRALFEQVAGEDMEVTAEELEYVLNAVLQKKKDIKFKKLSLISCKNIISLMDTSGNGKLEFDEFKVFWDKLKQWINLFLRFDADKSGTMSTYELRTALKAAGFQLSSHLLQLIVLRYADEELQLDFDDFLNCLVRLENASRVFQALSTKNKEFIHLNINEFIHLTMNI
T2 sequence (P04632 1-268 partner): T1 sequence (P04632 1-268 partner)
The assay is described as follows: Biochemical inhibition of calpain 9, continuous fluorescence (FRET substrate) assay. The note with it: mean; read-out: Human Calpain 9/NS1 IC50 (nM)_MEAN. As to the method: as §1, §2

The next assay deals with T3, Human Calpain 2/NS1 (Homo sapiens, UniProt P17655).
T3 sequence (P17655 1-700): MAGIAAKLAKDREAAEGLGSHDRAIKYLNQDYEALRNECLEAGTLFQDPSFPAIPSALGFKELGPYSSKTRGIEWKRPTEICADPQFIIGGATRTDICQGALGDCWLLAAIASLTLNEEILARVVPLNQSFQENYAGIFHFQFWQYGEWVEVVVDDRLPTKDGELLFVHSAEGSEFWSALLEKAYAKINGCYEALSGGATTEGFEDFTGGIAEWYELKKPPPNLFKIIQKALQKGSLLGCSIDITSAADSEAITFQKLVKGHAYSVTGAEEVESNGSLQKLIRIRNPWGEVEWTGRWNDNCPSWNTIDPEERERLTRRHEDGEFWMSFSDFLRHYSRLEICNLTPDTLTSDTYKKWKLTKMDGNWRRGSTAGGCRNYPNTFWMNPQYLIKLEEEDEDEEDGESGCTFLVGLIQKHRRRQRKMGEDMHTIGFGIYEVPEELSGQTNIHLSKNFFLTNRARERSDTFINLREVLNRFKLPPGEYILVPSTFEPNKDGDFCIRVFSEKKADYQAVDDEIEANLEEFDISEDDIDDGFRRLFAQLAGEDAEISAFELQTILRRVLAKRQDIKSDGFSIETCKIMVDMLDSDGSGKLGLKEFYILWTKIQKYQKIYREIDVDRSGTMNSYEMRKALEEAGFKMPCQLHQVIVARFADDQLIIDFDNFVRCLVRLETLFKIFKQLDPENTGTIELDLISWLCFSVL
T3 sequence (P04632 1-268 partner): T1 sequence (P04632 1-268 partner)
The assay is described as follows: Biochemical inhibition of calpain 2, continuous fluorescence (FRET substrate) assay. The note with it: mean; read-out: Human Calpain 2/NS1 1C50 [sic] (nM)_MEAN. How it is done: as §1, §2

Assay [2] deals with calpain activity in SH-SY5Y cells. Description: SH-SY5Y cellular calpain activity, Suc-LLVY-AMC fluorescence assay. It counts as cell-based. As to conditions: Suc-LLVY-AMC substrate. How it is done: Calpain activity in SH-SY5Y cells and inhibition thereof were assessed by means of a homogeneous, fluorescence assay that uses the cell-permeable and pro-fluorescent calpain substrate Suc-LLVY-AMC (Sigma-Aldrich Inc). Upon intracellular calpain cleavage of Suc-LLVY-AMC, fluorescent amino-methyl-coumarin (AMC) is released into the media resulting in a continuous increase in fluorescence signal that is proportional to intra-cellular calpain activity.
Assays were typically setup by seeding SH-SY5Y cells in black 384-well plates at 40 k/per well in RPMI-1640 containing 1% serum followed by 37 C overnight incubation. Next morning, cells were pre-incubated for 30 min with serially diluted compounds followed by addition of 100 uM of Suc-LLVY-AMC substrate. The continuous increase in AMC fluorescence is monitored using a FLIPR, Tetra plate reader (Molecular Devices Inc) and slopes measured to report calpain activity. Dose response curves (slopes vs. log inhibitor concentration) were typically fit to a 4-parameter logistic function to extract IC50 values.

Among the data in patent US20210347727A1 (BLADE THERAPEUTICS, INC., priority 2017, published 2021) are IC50 values, retold here.

Take `O=CC(Cc1ccccc1)NC(=O)c1cccc2c1oc1ccccc12` (stereo not drawn) [Compound 46, N-(1-OXO-3-PHENYLPROPAN-2-YL)DIBENZO[b,a]FURAN-4-CARBOXAMIDE]: the IC50 in assay [1] is 10 to 25 µM; on Human Calpain 1/NS1, 3000 to 10000 nM; at Human Calpain 9/NS1 it was 3000 to 10000 nM; at Human Calpain 2/NS1, below 3000 nM; in assay [2] it was above 25 µM.
`NC(=O)C(=O)[C@H](Cc1ccccc1)NC(=O)c1cc(Br)ccc1Cl` [Compound 34, (S)—N-(4-AMINO-3,4-DIOXO-1-PHENYLBUTAN-2-YL)-5-BROMO-2-CHLOROBENZAMIDE]: the IC50 in assay [1] is below 10 µM; at Human Calpain 1/NS1 it was below 3000 nM; at Human Calpain 9/NS1 it was below 3000 nM; on Human Calpain 2/NS1, below 3000 nM; in assay [2] it was below 10 µM.
`NC(=O)C(=O)C(Cc1ccccc1)NC(=O)c1c(Cl)ccc2ccccc12` (stereo not drawn) [Compound 13, N-(4-AMINO-3,4-DIOXO-1-PHENYLBUTAN-2-YL)-2-CHLORO-1-NAPHTHAMIDE]: the IC50 in assay [1] was 10 to 25 µM; on Human Calpain 1/NS1, below 3000 nM; at Human Calpain 9/NS1, below 3000 nM; at Human Calpain 2/NS1, below 3000 nM; in assay [2], 10 to 25 µM.
Take `COc1ccc(F)c(C(=O)N[C@@H](Cc2ccccc2)C(=O)C(N)=O)c1Cl` [Compound 29, (S)—N-(4-AMINO-3,4-DIOXO-1-PHENYLBUTAN-2-YL)-2-CHLORO-6-FLUORO-3-METHOXYBENZAMIDE]: the IC50 was 10 to 25 µM in assay [1]; below 3000 nM at Human Calpain 1/NS1; below 3000 nM at Human Calpain 9/NS1; below 3000 nM at Human Calpain 2/NS1; below 10 µM in assay [2].
As to `NC(=O)C(=O)[C@H](Cc1ccccc1)NC(=O)c1cc(F)c(Cl)cc1Cl` [Compound 33, (S)—N-(4-AMINO-3,4-DIOXO-1-PHENYLBUTAN-2-YL)-2,4-DICHLORO-5-FLUOROBENZAMIDE], the IC50 in assay [1] is below 10 µM; on Human Calpain 1/NS1, below 3000 nM; on Human Calpain 9/NS1 it was below 3000 nM; at Human Calpain 2/NS1 it was below 3000 nM; in assay [2], below 10 µM.
Consider `NC(=O)C(=O)[C@H](Cc1ccccc1)NC(=O)c1ccc(F)cc1` [Compound 28, (S)—N-(4-AMINO-3,4-DIOXO-1-PHENYLBUTAN-2-YL)-4-FLUOROBENZAMIDE], for which the IC50 was above 25 µM in assay [1]; above 10000 nM at Human Calpain 1/NS1; 3000 to 10000 nM on Human Calpain 9/NS1; 3000 to 10000 nM at Human Calpain 2/NS1; below 10 µM in assay [2].
On to `NC(=O)C(=O)[C@H](Cc1ccccc1)NC(=O)c1c(F)cccc1F` [Compound 15, (S)—N-(4-AMINO-3,4-DIOXO-1-PHENYLBUTAN-2-YL)-2,6-DIFLUOROBENZAMIDE], for which the IC50 in assay [1] is 10 to 25 µM; on Human Calpain 1/NS1, below 3000 nM; at Human Calpain 9/NS1, below 3000 nM; at Human Calpain 2/NS1, below 3000 nM; in assay [2], 10 to 25 µM.
Turning to `NC(=O)C(=O)[C@H](Cc1ccccc1)NC(=O)c1c(Cl)cccc1Cl` [Compound 1, (S)—N-(4-AMINO-3,4-DIOXO-1-PHENYLBUTAN-2-YL)-2,6-DICHLOROBENZAMIDE], the IC50 in assay [1] is 10 to 25 µM; at Human Calpain 1/NS1 it was below 3000 nM; at Human Calpain 9/NS1, below 3000 nM; on Human Calpain 2/NS1, below 3000 nM; in assay [2], above 25 µM.
As to `COc1ccc(F)c(C(=O)NC(C=O)Cc2ccccc2)c1Cl` (stereo not drawn) [Compound 43, 2-CHLORO-6-FLUORO-3-METHOXY-N-(1-OXO-3-PHENYLPROPAN-2-YL)BENZAMIDE], the IC50 in assay [1] is 10 to 25 µM; at Human Calpain 1/NS1, below 3000 nM; on Human Calpain 9/NS1, below 3000 nM; at Human Calpain 2/NS1 it was below 3000 nM; in assay [2], below 10 µM.
Regarding `NC(=O)C(=O)C(Cc1ccccc1)NC(=O)c1cccc2c1Oc1ccccc1O2` (stereo not drawn) [Compound 7, N-(4-AMINO-3,4-DIOXO-1-PHENYLBUTAN-2-YL)DIBENZO[b,e][1,4]DIOXINE-1-CARBOXAMIDE], the IC50 is 10 to 25 µM in assay [1]; below 3000 nM on Human Calpain 1/NS1; below 3000 nM at Human Calpain 9/NS1; below 3000 nM at Human Calpain 2/NS1; above 25 µM in assay [2].
As for `O=CC(Cc1ccccc1)NC(=O)c1c(Cl)cccc1Cl` (stereo not drawn) [Compound 45, 2,6-DICHLORO-N-(1-OXO-3-PHENYLPROPAN-2-YL)BENZAMIDE], the IC50 was 10 to 25 µM in assay [1]; below 3000 nM at Human Calpain 1/NS1; below 3000 nM at Human Calpain 9/NS1; below 3000 nM on Human Calpain 2/NS1; below 10 µM in assay [2].
Turning to `NC(=O)C(=O)[C@H](Cc1ccccc1)NC(=O)c1c(F)cccc1I` [Compound 27, (S)—N-(4-AMINO-3,4-DIOXO-1-PHENYLBUTAN-2-YL)-2-FLUORO-6-IODOBENZAMIDE], the IC50 in assay [1] is 10 to 25 µM; on Human Calpain 1/NS1 it was below 3000 nM; on Human Calpain 9/NS1, below 3000 nM; at Human Calpain 2/NS1 it was below 3000 nM; in assay [2] it was below 10 µM.
